# Laboratory results as given in patent US8192962B2, “Processes for detecting toxic substances” (Daikin Industries, Ltd., priority 2001, dated 2012).
# Test system: Genes belonging to other category
# Assay: DNA chip mRNA expression in yeast, genes belonging to other category (Table 9)
# Format: cell-based, Saccharomyces cerevisiae S288C
# Description: Yeast (Saccharomyces cerevisiae S288C (α SUC2mal mel gap2 CUP1)) were incubated at 25° C. on YPD medium (yeast extract 1%, polypepton 2%, glucose 2%). One of toxic chemical substances was added to the cells at logarithmic growth phase, and the cells were further incubated for two hours. Cells were cultured without any chemical substance in the same condition, and were used as control. Concentrations of the chemical substances were defined to inhibit the growth of the yeast but not lead to death.
# After completion of the incubation, the culture was centrifuged to collect the cells. To the cells, sodium acetate buffer (50 mM sodium acetate, 10 mM EDTA, 1% SDS) was added, and the mixture was shaken at 65° C. for five minutes, followed by returning to room temperature, and obtaining the supernatant, of which the procedures were repeated two times. To the supernatant, ½ amount of a solution of phenol/chloroform was added, and the mixture was centrifuged to give a supernatant, which was added with an equal amount of chloroform, and the mixture was centrifuged to give a supernatant. To the supernatant, an equal amount of isopropanol containing 0.3 M sodium acetate was added, and the mixture was allowed to stand at room temperature for 30 minutes, after which the mixture was centrifuged to give a sediment of the whole RNAs. Seventy % ethanol was added to the sediment, and the mixture was again centrifuged to give a sediment, which was then dried and dissolved in water. mRNA was isolated from the whole RNAs as followings. In view of the fact that a poly A chain is attached to the 3′ terminus of mRNA, a polynucleotide having a poly T structure which was immobilized on the surface of latex beads was used to trap the mRNA, and then the mRNA was washed and eluted with spine column (Oligotex-dT30<Super>mRNA Purification Kit, Takara). Reverse transcription of the mRNA was conducted with a reverse transcriptase (Super Script II Reverse Transcriptase; catalogue No. 18064-014, GibcoBRL) using fluorescence-labeled nucleotides to give cDNAs that were introduced with Cy3-dUTP or Cy5-dUTP during the reverse transcription.
# The labeled cDNAs were dissolved in TE buffer (10mM Tris-HCl/1 mM EDTA, pH8.0), and the solution was dropped on the DNA chip containing the whole genes of yeast (DNA Chip Research Inc. Japan) so that the cDNAs were hybridized on the DNA chip at 65° C. for over 12 hours. The fluoresces intensity of the DNA chip was read with a scanner, and the ratio relative to the fluorescence intensity resulting from the absence of chemical substance was estimated as the following, which is shown in Tables 1 to 9: […]
smiles,measurement,setting,value
"[Cl][Hg][Cl] [(3), HgCl2]",The level of expressed mRNA in the presence of chemical substance/The level of expressed mRNA in the absence of chemical substance,yeast gene YKL008C,2.0
same,The level of expressed mRNA in the presence of chemical substance/The level of expressed mRNA in the absence of chemical substance,yeast gene YKL013C,1.4
same,The level of expressed mRNA in the presence of chemical substance/The level of expressed mRNA in the absence of chemical substance,yeast gene YKL039W,2.4
same,The level of expressed mRNA in the presence of chemical substance/The level of expressed mRNA in the absence of chemical substance,yeast gene YKL096W,8.1
same,The level of expressed mRNA in the presence of chemical substance/The level of expressed mRNA in the absence of chemical substance,yeast gene YKL165C,1.1
same,The level of expressed mRNA in the presence of chemical substance/The level of expressed mRNA in the absence of chemical substance,yeast gene YKL193C,1.1
same,The level of expressed mRNA in the presence of chemical substance/The level of expressed mRNA in the absence of chemical substance,yeast gene YLR120C,2.4
same,The level of expressed mRNA in the presence of chemical substance/The level of expressed mRNA in the absence of chemical substance,yeast gene YLR136C,0.6
same,The level of expressed mRNA in the presence of chemical substance/The level of expressed mRNA in the absence of chemical substance,yeast gene YLR178C,8.8
same,The level of expressed mRNA in the presence of chemical substance/The level of expressed mRNA in the absence of chemical substance,yeast gene YLR250W,1.0
same,The level of expressed mRNA in the presence of chemical substance/The level of expressed mRNA in the absence of chemical substance,yeast gene YLR327C,14.4
same,The level of expressed mRNA in the presence of chemical substance/The level of expressed mRNA in the absence of chemical substance,yeast gene YLR356W,4.9
same,The level of expressed mRNA in the presence of chemical substance/The level of expressed mRNA in the absence of chemical substance,yeast gene YLR362W,1.0
same,The level of expressed mRNA in the presence of chemical substance/The level of expressed mRNA in the absence of chemical substance,yeast gene YLR391W,2.9
same,The level of expressed mRNA in the presence of chemical substance/The level of expressed mRNA in the absence of chemical substance,yeast gene YLR429W,0.6
same,The level of expressed mRNA in the presence of chemical substance/The level of expressed mRNA in the absence of chemical substance,yeast gene YMR004W,1.3
same,The level of expressed mRNA in the presence of chemical substance/The level of expressed mRNA in the absence of chemical substance,yeast gene YMR094W,1.3
same,The level of expressed mRNA in the presence of chemical substance/The level of expressed mRNA in the absence of chemical substance,yeast gene YMR104C,2.2
same,The level of expressed mRNA in the presence of chemical substance/The level of expressed mRNA in the absence of chemical substance,yeast gene YMR219W,1.0
same,The level of expressed mRNA in the presence of chemical substance/The level of expressed mRNA in the absence of chemical substance,yeast gene YMR226C,1.4
same,The level of expressed mRNA in the presence of chemical substance/The level of expressed mRNA in the absence of chemical substance,yeast gene YMR275C,1.2
same,The level of expressed mRNA in the presence of chemical substance/The level of expressed mRNA in the absence of chemical substance,yeast gene YMR276W,1.5
same,The level of expressed mRNA in the presence of chemical substance/The level of expressed mRNA in the absence of chemical substance,yeast gene YMR314W,0.9
same,The level of expressed mRNA in the presence of chemical substance/The level of expressed mRNA in the absence of chemical substance,yeast gene YNL006W,1.3
same,The level of expressed mRNA in the presence of chemical substance/The level of expressed mRNA in the absence of chemical substance,yeast gene YNL007C,5.1
same,The level of expressed mRNA in the presence of chemical substance/The level of expressed mRNA in the absence of chemical substance,yeast gene YNL093W,0.4
same,The level of expressed mRNA in the presence of chemical substance/The level of expressed mRNA in the absence of chemical substance,yeast gene YNL333W,1.7
same,The level of expressed mRNA in the presence of chemical substance/The level of expressed mRNA in the absence of chemical substance,yeast gene YNR010W,0.5
same,The level of expressed mRNA in the presence of chemical substance/The level of expressed mRNA in the absence of chemical substance,yeast gene YNR069C,0.7
same,The level of expressed mRNA in the presence of chemical substance/The level of expressed mRNA in the absence of chemical substance,yeast gene YOL013C,1.0
same,The level of expressed mRNA in the presence of chemical substance/The level of expressed mRNA in the absence of chemical substance,yeast gene YOL164W,1.0
same,The level of expressed mRNA in the presence of chemical substance/The level of expressed mRNA in the absence of chemical substance,yeast gene YOR036W,1.4
same,The level of expressed mRNA in the presence of chemical substance/The level of expressed mRNA in the absence of chemical substance,yeast gene YOR117W,1.7
same,The level of expressed mRNA in the presence of chemical substance/The level of expressed mRNA in the absence of chemical substance,yeast gene YOR124C,1.3
same,The level of expressed mRNA in the presence of chemical substance/The level of expressed mRNA in the absence of chemical substance,yeast gene YOR132W,0.8
same,The level of expressed mRNA in the presence of chemical substance/The level of expressed mRNA in the absence of chemical substance,yeast gene YOR157C,1.2
same,The level of expressed mRNA in the presence of chemical substance/The level of expressed mRNA in the absence of chemical substance,yeast gene YOR181W,1.1
same,The level of expressed mRNA in the presence of chemical substance/The level of expressed mRNA in the absence of chemical substance,yeast gene YOR185C,1.9
same,The level of expressed mRNA in the presence of chemical substance/The level of expressed mRNA in the absence of chemical substance,yeast gene YOR198C,1.4
same,The level of expressed mRNA in the presence of chemical substance/The level of expressed mRNA in the absence of chemical substance,yeast gene YOR259C,0.8
same,The level of expressed mRNA in the presence of chemical substance/The level of expressed mRNA in the absence of chemical substance,yeast gene YOR261C,0.6
same,The level of expressed mRNA in the presence of chemical substance/The level of expressed mRNA in the absence of chemical substance,yeast gene YOR288C,1.1
same,The level of expressed mRNA in the presence of chemical substance/The level of expressed mRNA in the absence of chemical substance,yeast gene YOR355W,1.1
same,The level of expressed mRNA in the presence of chemical substance/The level of expressed mRNA in the absence of chemical substance,yeast gene YOR383C,2.6
same,The level of expressed mRNA in the presence of chemical substance/The level of expressed mRNA in the absence of chemical substance,yeast gene YPL089C,0.5
same,The level of expressed mRNA in the presence of chemical substance/The level of expressed mRNA in the absence of chemical substance,yeast gene YPL109C,0.5
same,The level of expressed mRNA in the presence of chemical substance/The level of expressed mRNA in the absence of chemical substance,yeast gene YPL149W,0.6
same,The level of expressed mRNA in the presence of chemical substance/The level of expressed mRNA in the absence of chemical substance,yeast gene YPL154C,4.2
same,The level of expressed mRNA in the presence of chemical substance/The level of expressed mRNA in the absence of chemical substance,yeast gene YPR103W,1.3
same,The level of expressed mRNA in the presence of chemical substance/The level of expressed mRNA in the absence of chemical substance,yeast gene YPR108W,1.3
